Experimental findings from US11339193B2, “CDP protein secretion inhibitors” (KEZAR LIFE SCIENCES, priority 2018, dated 2022) are described below.

In general, IC50 refers to the midpoint of a concentration-inhibition curve. The EC50 is the concentration at which the effect is half-maximal.

Format in all cases: cell-based
Experiment [1] concerns TNFα-FL/Gaussia Luciferase. The experiment in a line: Dox induced TNFα-FL-Gluc assay. As to conditions: Flp-In 293 T-REx cells, doxycycline, 24 hours; read-out: TNFa FL Gluc IC50. The essentials: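 Stable Flp-In 293 T-REx line expressing full-length TNFα (aa 1-233) fused at its C-terminus to Gaussia luciferase under doxycycline-inducible control. Cells plated the day before, then given compound dilutions in DMSO/media containing doxycycline and incubated at 37 °C, 5% CO2.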

The test system of experiment [2] is PD1-ss+10aa/Gaussia Luciferase. Kind of experiment: Dox induced PD1-ss-Gluc assay. Particulars: Flp-In 293 T-REx cells, doxycycline, 24 hours; read-out: PD1ss Gluc IC50. The essentials:
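Stable Flp-In 293 T-REx line expressing doxycycline-inducible Gaussia luciferase fused to the PD1 signal sequence plus 10 amino acids. Cells plated the day before, then exposed to compound dilutions in DMSO/media containing doxycycline at 37 °C, 5% CO2.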

Experiment [3] has as its system JJN3 plasma cell leukemia cell line. Kind of experiment: JJN-3 assay (Alamar blue). Particulars: Homo sapiens, 72 h. The method, then: (§1) BT474 is a human breast tumor cell line. JJN3 is a human plasma cell leukemia cell line. […] Cells were seeded at 100 000 cells/mL. Aliquots of 5000 cells (50 μL) were added to each well in black, clear bottom 96-well plates. Compounds or control (50 uL of 1% DMSO in cell culture medium) were added to the cells to the indicated final concentrations and cells were incubated for 72 h (unless otherwise specified). After incubation was complete, Alamar blue (10 uL of a 1 mg/mL solution) was added to each well and plates were incubated for 5 h. Fluorescence was then measured (excitation 545 nm, emission 590 nm) and is reported as […] normalized to DMSO control.
(Resazurin is reduced to fluorescent resorufin, in cell work by metabolically active cells.)

The subject of experiment [4] is Prl-ss+10aa/Gaussia Luciferase. Kind of experiment: Prl-ss-Gluc assay (constitutively active or 24 hr Dox inducible). Particulars: Flp-In 293 T-REx cells, 24 hours; read-out: Prl IC50. The essentials:
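Stable Flp-In 293 T-REx lines express Prl signal sequence+10aa fused to Gaussia luciferase, either constitutively (pcDNA5/FRT) or under the T-REx promoter (pcDNA5/FRT/TO). Cells plated the day before; compounds in DMSO/media (with doxycycline for the inducible line, 24 h) incubated at 37 °C, 5% CO2.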

Experiment [5] has as its system NCI-H929 multiple myeloma cell line. Kind of experiment: H929 assay (cell viability, Celltiter-Glo). Particulars: Homo sapiens, NCI-H929; 48 hours, cell viability; read-out: H929 EC50. The essentials:
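Cells plated in RPMI 1640 with 10% FBS and 2 mM glutamine, treated with compound dilutions in DMSO/media. Incubation 48 h at 37° C, 5% CO2. Viability from luciferase luminescence signal.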
Background: Cellular ATP, detected with luciferase, serves as a proxy for viable cell number.

In experiment [6] the test system is BT474 breast tumor cell line. Kind of experiment: BT474 assay (Alamar blue). Particulars: Homo sapiens, BT-474, 72 h. On the procedure:
as §1

A further experiment concerns HER3ss-Gluc. The experiment in a line: HER3ss assay. Particulars: HEK-293T T-rex cells, transient transfection, doxycycline, 24 h; read-out: HER3 ss IC50. The essentials:
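HEK-293T T-REx cells were transiently transfected with HER3 signal sequence (plus four mature-domain residues) fused upstream of mature Gaussia luciferase. Cells were induced with doxycycline (1 μg/ml) and exposed to increasing compound concentrations for 24 h, then secreted luciferase in the conditioned medium was read by luminescence.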

Experiment [7] has as its system U266B1 multiple myeloma cell line. Kind of experiment: U266 assay (cell viability, Celltiter-Glo). Particulars: Homo sapiens, U-266; 48 hours, cell viability. On the procedure:
Cells were plated in 384-well tissue culture plates and treated with compound dilutions in DMSO/media. Plates were incubated at 37° C., 5% CO2 for 48 hours. After 48 hours, Celltiter-Glo@ (Promega) was added to each well and luciferase signal was quantified using Tecan Infinite M1000 Pro for cell viability determination.

In experiment [8] the test system is VCAMss+10aa/Gaussia Luciferase. Kind of experiment: VCAM-ss-Gluc assay (constitutively active or Dox induced). As to conditions: Flp-In 293 T-REx cells, 24 hours. On the procedure: Assays Constitutively Active VCAM-ss-Gluc Assay
Transfected cells were selected for resistance to the selectable markers Hygromycin and Blasticidin to create a stable cell line that constitutively expressed the VCAMss+ 10aa/Gaussia Luciferase fusion protein. The day before assay, cells were trypsinized and plated in 384-well tissue culture plates. The next day, culture media was removed from the wells and replaced with fresh media. Compound dilutions in DMSO/media were added to the wells and incubated at 37° C., 5% CO2.
Dox Induced VCAM-ss-Gluc Assay
Transfected cells were selected for resistance to the selectable markers Hygromycin and Blasticidin to create a stable cell line that contained the VCAMss+10aa/Gaussia Luciferase cDNA insert whose expression was regulated under the T-REx™ system. The day before assay, cells were trypsinized and plated in 384-well tissue culture plates. The next day, compound dilutions in DMSO/media containing doxycycline were added to the wells and incubated at 37° C., 5% CO2.

Numbered stars: 1 amine (or outer) side, 2 acyl side, 3 side chain; on linkers, the order of the positions; unused ones are H or OH. Square brackets hold non-standard residues; d marks the D form. Peptide text beside a SMILES is read from it. NMeTrp(1-(4-Br-benzyl)) = CN[C@@H](Cc1cn(Cc2ccc(Br)cc2)c2ccccc12)C(=O)O; X17 = CN([C@@H](Cc1cn(-c2ccccc2)c2ccccc12)C(=O)[*:2])[*:1]; Butanoyl(2R-oxy,4-CN) = N#CCC[C@@H](O)C(=O)O; Nva(5,5,5-F3) = N[C@@H](CCC(F)(F)F)C(=O)O; Abu(4,4,4-F3) = N[C@@H](CC(F)(F)F)C(=O)O; NMeBta = CN[C@@H](Cc1csc2ccccc12)C(=O)O; NMeL = CN[C@@H](CC(C)C)C(=O)O; NMeA = CN[C@@H](C)C(=O)O

Consider `CC(C)C[C@@H]1NC(=O)[C@H](Cc2cn(Cc3ccc(Br)cc3)c3ccccc23)N(C)C(=O)[C@H](CCC(F)(F)F)NC(=O)[C@H](CC(C)C)N(C)C(=O)[C@H](CC(F)(F)F)NC(=O)[C@@H](CCC#N)OC(=O)[C@H](C)N(C)C1=O` [C-57] (cyclo(L[NMeA][Butanoyl(2R-oxy,4-CN)][Abu(4,4,4-F3)][NMeL][Nva(5,5,5-F3)][NMeTrp(1-(4-Br-benzyl))])), for which the IC50 in experiment [1] is 112 nM; in experiment [2], 26 nM; in experiment [4], 1.5 µM. In addition, the half-maximal effective concentration (EC50) in experiment [3] is 154 nM; in experiment [5], 0.834 µM; in experiment [6], 0.832 µM.

Consider `CC(C)C[C@@H]1NC(=O)[C@H](Cc2cn(Cc3cccc(Br)c3)c3ccccc23)N(C)C(=O)[C@H](CC(C)C)NC(=O)[C@H](CC(C)C)N(C)C(=O)[C@H](CC(C)C)NC(=O)[C@@H](CCC#N)OC(=O)[C@H](C)N(C)C1=O` [C-77] (HELM PEPTIDE1{L.[meA].[N#CCC[C@@H](O[*:1])C(=O)[*:2]].L.[meL].L.[CN([C@@H](Cc1cn(Cc2cccc(Br)c2)c2ccccc12)C(=O)[*:2])[*:1]]}$PEPTIDE1,PEPTIDE1,1:R1-7:R2$$$V2.0), for which the half-inhibitory concentration (IC50) in the experiment on HER3ss-Gluc stood at 787 nM. Further, the values for the EC50 in experiment [3] and in [6] were 2500 nM and 15.1 µM, respectively.

As to `CC(C)C[C@@H]1NC(=O)[C@H](Cc2cn(Cc3ccc(Br)cc3)c3ccccc23)N(C)C(=O)[C@H](CC(F)(F)F)NC(=O)[C@H](CC(C)C)N(C)C(=O)[C@H](CC(F)(F)F)NC(=O)[C@@H](CCC#N)OC(=O)[C@H](C)N(C)C1=O` [C-58, 3-((2R,5S,8S,11S,14S,17S,20S)-14-((1-(4-bromobenzyl)-1H-indol-3-yl)methyl)-8,17-diisobutyl-7,13,19,20-tetramethyl-3,6,9,12,15,18,21-heptaoxo-5,11-bis(2,2,2-trifluoroethyl)-1-oxa-4,7,10,13,16,19-hexaazacyclohenicosan-2-yl)propanenitrile] (cyclo(L[NMeA][Butanoyl(2R-oxy,4-CN)][Abu(4,4,4-F3)][NMeL][Abu(4,4,4-F3)][NMeTrp(1-(4-Br-benzyl))])), the results for the IC50 in experiment [1], in experiment [2] and in experiment [4] were 90 nM, 25 nM and 0.619 µM, respectively. Besides, the EC50 was 111 nM in experiment [3], 0.629 µM in experiment [5] and 0.444 µM in [6].

For `COc1ccc(Cn2cc(C[C@H]3C(=O)N[C@@H](CC(C)C)C(=O)N(C)[C@@H](C)C(=O)O[C@H](CCC#N)C(=O)N[C@@H](CC(C)C)C(=O)N(C)[C@@H](CC(C)C)C(=O)N[C@@H](CC(C)C)C(=O)N3C)c3ccccc32)cc1` [C-31] (HELM PEPTIDE1{L.[meA].[N#CCC[C@@H](O[*:1])C(=O)[*:2]].L.[meL].L.[COc1ccc(Cn2cc(C[C@@H](C(=O)[*:2])N(C)[*:1])c3ccccc32)cc1]}$PEPTIDE1,PEPTIDE1,1:R1-7:R2$$$V2.0), the results for the IC50 (in [1]; in experiment [2]; in the experiment on HER3ss-Gluc) were 4060 nM, 380 nM and 264 nM, respectively. The EC50 in [3] amounted to 2060 nM; in experiment [6] it was 5.89 µM.

With `CC(C)C[C@@H]1NC(=O)[C@H](Cc2ccccc2)N(C)C(=O)[C@H](CC(C)C)NC(=O)[C@H](CC(C)C)N(C)C(=O)[C@H](CC(C)C)NC(=O)[C@@H](CCC#N)OC(=O)[C@H](C)N(C)C1=O` [C-37] (HELM PEPTIDE1{L.[meA].[N#CCC[C@@H](O[*:1])C(=O)[*:2]].L.[meL].L.[meF]}$PEPTIDE1,PEPTIDE1,1:R1-7:R2$$$V2.0), the EC50 was 20.9 µM in [7], 8810 nM in [3], 6.29 µM in experiment [5] and 6.36 µM in experiment [6]. The 50% inhibitory concentration (IC50) was 1020 nM in [1], 582 nM in experiment [2], 267 nM in the experiment with HER3ss-Gluc and 18.5 µM in experiment [4].

`CCCC[C@@H]1NC(=O)[C@@H](CCC#N)OC(=O)[C@H](C)N(C)C(=O)[C@H](CC(C)C)NC(=O)[C@H](Cc2cn(Cc3ccc(C(F)(F)F)cc3)c3ccccc23)N(C)C(=O)[C@H](CC(C)C)NC(=O)[C@H](CC(C)C)N(C)C1=O` [C-46] (HELM PEPTIDE1{L.[meA].[N#CCC[C@@H](O[*:1])C(=O)[*:2]].[Nle].[meL].L.[CN([C@@H](Cc1cn(Cc2ccc(C(F)(F)F)cc2)c2ccccc12)C(=O)[*:2])[*:1]]}$PEPTIDE1,PEPTIDE1,1:R1-7:R2$$$V2.0): the IC50 came out at 296 nM in experiment [1], 35 nM in [2], 15 µM in [4] and 141 nM in experiment [8]. Further, the concentration for a half-maximal effect (EC50) is 640 nM in experiment [3], 3.07 µM in experiment [5] and 3.12 µM in experiment [6].

On to `CC(C)C[C@@H]1NC(=O)[C@@H](CCC#N)OC(=O)[C@H](C)N(C)C(=O)[C@H](CCC(F)(F)F)NC(=O)[C@H](Cc2csc3ccccc23)N(C)C(=O)[C@H](CC(C)C)NC(=O)[C@H](CC(C)C)N(C)C1=O` [C-50] (cyclo(L[NMeBta][Nva(5,5,5-F3)][NMeA][Butanoyl(2R-oxy,4-CN)]L[NMeL])), for which the IC50 in experiment [1] turned out to be 644 nM; in experiment [2], 201 nM; in experiment [4], 9.06 µM; in [8], 30 nM. Further, the EC50 was 1080 nM in [3], 4.54 µM in experiment [5] and 2.45 µM in experiment [6].

On to `CC(C)C[C@@H]1NC(=O)[C@H](Cc2cn(-c3ccccc3)c3ccccc23)N(C)C(=O)[C@H](CC(C)C)NC(=O)[C@H](CC(C)C)N(C)C(=O)[C@H](CC(F)(F)F)NC(=O)[C@@H](CCC#N)OC(=O)[C@H](C)N(C)C1=O` [C-51] (cyclo(L[NMeA][Butanoyl(2R-oxy,4-CN)][Abu(4,4,4-F3)][NMeL]L[X17])), for which the concentration for half-maximal inhibition (IC50) in experiment [1] was 836 nM; in experiment [2] it was 133 nM; in experiment [8], 72 nM. The EC50 stood at 1070 nM in experiment [3], 6.2 µM in experiment [5] and 3.44 µM in experiment [6].

Consider `CC(C)C[C@@H]1NC(=O)[C@H](Cc2cn(Cc3cccc(OC(F)F)c3)c3ccccc23)N(C)C(=O)[C@H](CC(C)C)NC(=O)[C@H](CC(C)C)N(C)C(=O)[C@H](CC(C)C)NC(=O)[C@@H](CCC#N)OC(=O)[C@H](C)N(C)C1=O` [C-76] (HELM PEPTIDE1{L.[meA].[N#CCC[C@@H](O[*:1])C(=O)[*:2]].L.[meL].L.[CN([C@@H](Cc1cn(Cc2cccc(OC(F)F)c2)c2ccccc12)C(=O)[*:2])[*:1]]}$PEPTIDE1,PEPTIDE1,1:R1-7:R2$$$V2.0), for which the IC50 in the experiment with HER3ss-Gluc was 245 nM. Further, the EC50 in [3] came out at 669 nM; in [6], 5.84 µM.

On to `CC(C)C[C@@H]1NC(=O)[C@H](Cc2cn(Cc3cccc(OC(F)(F)F)c3)c3ccccc23)N(C)C(=O)[C@H](CC(C)C)NC(=O)[C@H](CC(C)C)N(C)C(=O)[C@H](CC(C)C)NC(=O)[C@@H](CCC#N)OC(=O)[C@H](C)N(C)C1=O` [C-75] (HELM PEPTIDE1{L.[meA].[N#CCC[C@@H](O[*:1])C(=O)[*:2]].L.[meL].L.[CN([C@@H](Cc1cn(Cc2cccc(OC(F)(F)F)c2)c2ccccc12)C(=O)[*:2])[*:1]]}$PEPTIDE1,PEPTIDE1,1:R1-7:R2$$$V2.0), for which the concentration for half-maximal inhibition (IC50) with HER3ss-Gluc worked out at 857 nM. Besides, the EC50 in [3] turned out to be 920 nM; in [6], 8.22 µM.
